For data set [1] the following is noted: Phase I and II, cancer patients; cited from earlier work.
Data set [2] in a line: Growth performance of three day old chicks fed diet with AS101 (body weight, feed intake, feed efficacy, liver weight, survival, histology). The settings on record: for increase in BW over Group 1: versus standard diet without selenium. As for the experimental part:
Each chick included in the study weighed exactly 80 g. via accurate electronic scale and each chick was marked. There were five different treatment groups, each group comprising ten chicks in four repetitions. The five groups of animals were tested as follows: Group 1 received a standard feeding diet without selenium; Group 2 received the standard feeding diet supplemented with 500 mg/metric ton of selenium; Group 3 received the same diet as Group 2 with the addition of AS101 at a concentration of 500 mg/metric ton; Group 4 received the same diet as Group 2 with the addition of AS101 at a concentration of 2,500 mg/metric ton; Group 5 received the same diet as Group 2 with the addition of AS101 at a concentration of 12,500 mg/ton. All the experiments were randomized and open. The results of each group represent the mean of 40 chicks. For growth period days 3-24, the performance of groups of three day old birds, fed AS101 concentrations of 500 mg/metric ton, 2,500 mg/metric ton or 12,500 mg/metric ton were compared to groups of control birds fed either a standard feeding diet without selenium or a standard feeding diet with an addition of […] selenium. Body weight (BW) was measured after 24 days. At the end of 24 days, the animals were examined for gross signs of toxicity. A gross visual examination was carried out. The liver of each chick was extracted and weighed.

The conditions of data set [3]: intraruminal pellets selenium, dairy heifers; cited from earlier work.
The mark [4] stands for this setting: Treatment 3: AS101 500 mg/metric ton.
The mark [5] stands for this setting: Treatment 4: AS101 2,500 mg/metric ton.
Setting [6] is: Treatment 4: AS101 2,500 mg/metric ton, control = Treatment 2.
[7] abbreviates: Treatment 5: AS101 12,500 mg/ton.
The mark [8] stands for this setting: Treatment 5: AS101 12,500 mg/ton, control = Treatment 2.
[9] abbreviates: Treatment 2: selenium supplemented diet, no AS101.

Each structure is given as a SMILES string.

For `Cl[TeH]1(Cl)(Cl)OCCO1` [AS101, ammonium trichloro(dioxyethylene-O,O′)tellurate], in data set [1], the “toxicity in clinical trials” value is on record as “non-toxic”. The “change in BW (significance)” value in data set [2] (12.5 g/ton AS101) is reported as “significant increase in BW”. In addition, the BW increase in data set [2] (AS101 500 mg/ton added to mixture that includes selenium) was found to be 1.7%; in data set [2] (AS101 2,500 mg/ton added to mixture that includes selenium), 2.3%; in data set [2] (AS101 12,500 mg/ton added to mixture that includes selenium), 5%. In data set [2] (Group 5, highest level of tellurium), the “increase in BW over Group 1” value worked out at 5.4%. For the same molecule, the “FEED EFFICACY” value was found to be 0.731 g/g in data set [2] (setting [4]), 0.74 g/g in data set [2] (setting [5]) and 0.738 g/g in data set [2] (setting [7]). Moreover, the “FEED INTAKE” value in data set [2] (setting [4]) was determined as 1382 g; in data set [2] (setting [5]), 1375 g; in data set [2] (setting [7]), 1417 g. The “FE, % OF CONTROL” value in data set [2] (Treatment 3: AS101 500 mg/metric ton, control = Treatment 2) amounted to 103.5%; in data set [2] (setting [6]) it was 104.8%; in data set [2] (setting [8]), 104.5%. Further, the “BW, % OF CONTROL” value in data set [2] (Treatment 3: AS101 500 mg/metric ton, control = Treatment 2 (selenium diet)) turned out to be 101.7%; in data set [2] (setting [6]), 102.3%; in data set [2] (setting [8]), 105%. The BW-24D in data set [2] (Treatment 3: standard diet + selenium 500 mg/metric ton + AS101 500 mg/metric ton, mean of 40 chicks) came to 1090 g; in data set [2] (Treatment 4: standard diet + selenium + AS101 2,500 mg/metric ton, mean of 40 chicks), 1097 g; in data set [2] (Treatment 5: standard diet + selenium + AS101 12,500 mg/ton, mean of 40 chicks) it was 1126 g. This molecule also returned a survival rate in data set [2] (all groups, no mortalities) of 100%. Moreover, in data set [2] (diet with at least 0.5 gm selenium per metric ton + 12.5 gm tellurium compound per metric ton, by day 21), the “increase of growth rate of young chicks” value is recorded as “up to 5%”. For the same molecule, the “food intake altered by feeding with AS101” value in data set [2] (in vivo) is “not altered”. For the same molecule, the histological studies entry in data set [2] (in vivo) is given as “No pathological changes were observed”.

With `[Se]` [selenium, reference compound], the “weight gains over control” value in data set [3] is 0.11 to 0.12 kg/day. In addition, the “increase in BW over Group 1” value in data set [2] (Group 2, addition of 300 mg/ton of selenium) is reported as 0.4%. For the same molecule, in data set [2] (setting [9]), the “FEED EFFICACY” value worked out at 0.706 g/g; the “FEED INTAKE” value amounted to 1405 g; the “LIVER, % OF BW” value is 2.32%. The molecule further showed a BW-24D in data set [2] (Treatment 2: standard diet supplemented with 500 mg/metric ton of selenium, no AS101) of 1072 g.
